Values belong to the compound of their own block, whether it stands above or below them.
Columns and labels:
Male mice of ddY strain = assay: Acute toxicity, oral, rate of death and general symptoms; assay type: in vivo; conditions: for rate of death: two weeks
Source text: Male mice of ddY strain (5 weeks of age) were used (one group comprised 4 to 5 mice).

[1] = test system: Accumulation of Galactitol in sciatic nerve; assay: Accumulation of galactitol in sciatic nerve after single oral galactose; assay type: in vivo, rat (Sprague-Dawley); conditions: 4 hours prior to 5 g/kg galactose, rats sacrificed after 3 hours
Description: (B) Male rats of Sprague-Dawley strain (body weight: 150 to 200 g) were fasted overnight and used in the test (one group comprised 4 rats). To all groups were given 5 g/kg of galactose orally, then the rats were sacrificed after 3 hours, and sciatic nerve was taken out and weighed. The content of galactitol in the sciatic nerve was measured by high performance liquid chromatography in accordance with a method by Jean-Marie Dethy (Anal. Biochem. 143, 119, 1984). The test compound was given orally 4 hours prior to the administration of galactose. To the control group was given 0.5% methylcellulose.

[2] = test system: amounts of inositol and galactitol in the sciatic nerve; assay: Inositol and galactitol in sciatic nerve of rats fed 20% galactose diet for 4 days; assay type: in vivo, rat (Sprague-Dawley); conditions: 9 a.m. and 5 p.m., rat sciatic nerve
Description: (C) Non-fasted male rats of Sprague-Dawley strain (5 rats in one group) of 150-220 g body weight were used. To all groups was administered 20% galactose diet (a mixture of galactose and F-2 which is a product of Funahashi Farm) and fed for 4 days. The test compound was given orally at 9 a.m. and 5 p.m. from the first to the fourth day. On the fifth day, the rats were sacrificed, sciatic nerve was taken out, and the amounts of inositol and galactitol in the sciatic nerve were measured by the method as given before.

aldose reductase [3] = molecular target: T1, aldose reductase (Bos taurus, UniProt P16116); assay: Activity of aldose reductase, in vitro; assay type: biochemical; conditions: aldose reductase from crystal eye of cow
T1 construct: The aldose reductase used was that obtained from crystal eye of cow; from tissue; host or cells: cow eye lens
Source text: The aldose reductase used was that obtained from crystal eye of cow and the measurement was done in vitro.

aldose reductase [4] = assay: Aldose reductase inhibiting action (statement in words, test not described)

SMILES: COc1ccc2c(C(=S)N(C)CC(=O)O)cccc2c1C(F)(F)F [Tolrestat, reference compound]
rate of death (Male mice of ddY strain; 500 mg/kg oral): 2/4
rate of death (Male mice of ddY strain; 1000 mg/kg oral): 3/4
Inhibition rate (%) against Accumulation of Galactitol in sciatic nerve ([1]; 10 mg/kg oral): 21.01%
Inhibition rate (%) against Accumulation of Galactitol in sciatic nerve ([1]; 20 mg/kg oral): 28.26%
Inhibition rate (%) against Accumulation of Galactitol in sciatic nerve ([1]; 50 mg/kg oral): 68.00%
Inhibition rate (%) against Accumulation of Galactitol in sciatic nerve ([1]; 100 mg/kg oral): 95.43%
Inhibition Rate (%) ([2]; 5 mg/kg oral): 34%
Inhibition Rate (%) ([2]; 10 mg/kg oral): 86%
Inhibition Rate (%) ([2]; 20 mg/kg oral): 96%

SMILES: CN(CC(=O)OCCO)C(=S)c1cc(-c2ccccc2)nc2ccccc12 [Compound 1, β-Hydroxyethyl ester of N-[(2-phenylquinolin-4-yl)thioxomethyl]-N-methylglycine]
rate of death (Male mice of ddY strain; 1000 mg/kg oral): 0/4
case of death (Male mice of ddY strain; 3 g/kg oral): no case of death
Inhibition rate (%) against Accumulation of Galactitol in sciatic nerve ([1]; 20 mg/kg oral): 54.88%
Inhibition rate (%) against Accumulation of Galactitol in sciatic nerve ([1]; 50 mg/kg oral): 84.57%
Inhibition rate (%) against Accumulation of Galactitol in sciatic nerve ([1]; 100 mg/kg oral): 92.57%
IC50 (aldose reductase [3]): > 8.7 µM
Inhibition Rate (%) ([2]; 10 mg/kg oral): 45%
Inhibition Rate (%) ([2]; 20 mg/kg oral): 67%

IC50 (aldose reductase [3]): > 8.7 µM
SMILES: Cc1cc(C(=S)N(C)CC(=O)OCCO)c2cccc(C(F)(F)F)c2n1 [Compound 2, β-Hydroxyethyl ester of N-[(2-methyl-8-trifluoromethylquinolin-4-yl)thioxomethyl]-N-methylglycine]
Inhibition rate (%) against Accumulation of Galactitol in sciatic nerve ([1]; 10 mg/kg oral): 45.37%
Inhibition rate (%) against Accumulation of Galactitol in sciatic nerve ([1]; 20 mg/kg oral): 91.28%
Inhibition rate (%) against Accumulation of Galactitol in sciatic nerve ([1]; 50 mg/kg oral): 98.19%
Inhibition Rate (%) ([2]; 5 mg/kg oral): 27%
Inhibition Rate (%) ([2]; 10 mg/kg oral): 46%
Inhibition Rate (%) ([2]; 20 mg/kg oral): 77%

SMILES: CN(CC(=O)OCCO)C(=S)c1cc(-c2ccccc2F)nc2cc(F)ccc12 [Compound 3]
rate of death (Male mice of ddY strain; 1000 mg/kg oral): 0/4
Inhibition rate (%) against Accumulation of Galactitol in sciatic nerve ([1]; 20 mg/kg oral): 32.68%
Inhibition rate (%) against Accumulation of Galactitol in sciatic nerve ([1]; 50 mg/kg oral): 70.78%
IC50 (aldose reductase [3]): > 8.7 µM
Inhibition Rate (%) ([2]; 10 mg/kg oral): 26%
Inhibition Rate (%) ([2]; 20 mg/kg oral): 37%

SMILES: CCc1cc(C(=S)N(C)CC(=O)OCCO)c2cccc(C(F)(F)F)c2n1 [Compound 5, β-Hydroxyethyl ester of N-[(2-ethyl-8-trifluoromethylquinolin-4-yl)thioxomethyl]-N-methylglycine]
rate of death (Male mice of ddY strain; 1000 mg/kg oral): 0/4
Inhibition rate (%) against Accumulation of Galactitol in sciatic nerve ([1]; 20 mg/kg oral): 13.98%
Inhibition rate (%) against Accumulation of Galactitol in sciatic nerve ([1]; 50 mg/kg oral): 79.66%

SMILES: O=C(O)CNC(=O)c1cc(-c2ccccc2)nc2ccccc12 [[(2-phenylquinolin-4-yl)carbonyl]glycine]
aldose reductase inhibiting action (aldose reductase [4]): does not exhibit the aldose reductase inhibiting action

Source: patent US4970214A, “Quinoline substituted oxomethyl or thioxomethyl glycine derivatives and aldose reductase inhibition therewith” (Nippon Shinyaku Co., Ltd., priority 1986, dated 1990)
